Reference: patent US6204293A, “Inhibitors of protein isoprenyl transferases” (University of Pittsburgh, priority 1998, dated 2001)
Structures can show the parent of a compound that is named as a salt.

Target: T1, Rat brain protein farnesyltransferase (Rattus norvegicus, UniProt Q02293+Q04631)
T1 construct: Rat brain protein farnesyltransferase activity is measured; from tissue; host or cells: rat brain
Test: % inhibition of farnesylation, scintillation proximity assay with biotin-K Ras B fragment
Type: biochemical
Conditions: Table 1; 1 × 10^-5 M
Text: The ability of the compounds of the invention to inhibit protein farnesyltransferase or protein geranylgeranyltransferase can be measured according to the method of Moores, et al., J. Biol. Chem. 266: 14603 (1991) or the method of Vogt, et al., J. Biol. Chem. 270:660-664 (1995). In addition, procedures for determination of the inhibition of farnesylation of the oncogene protein Ras are described by Goldstein, et al., J. Biol. Chem., 266:15575-15578 (1991) and by Singh in U.S. Pat. No. 5,245,061.
In addition, in vitro inhibition of protein farnesyltransferase may be measured by the following procedure. Rat brain protein farnesyltransferase activity is measured using an Amersham Life Science commercial scintillation proximity assay kit and substituting a biotin-K Ras B fragment (biotin-[…]CO2 H), 0.1 mM final concentration, for the biotin-lamin substrate provided by Amersham. The enzyme is purified according to Reiss, Y., et al., Cell, 62: 81-88 (1990), utilizing steps one through three.
The % inhibition of protein farnesyltransferase was determined for representative compounds of the invention.

T1 sequence (Q02293 whole entry, one chain of several): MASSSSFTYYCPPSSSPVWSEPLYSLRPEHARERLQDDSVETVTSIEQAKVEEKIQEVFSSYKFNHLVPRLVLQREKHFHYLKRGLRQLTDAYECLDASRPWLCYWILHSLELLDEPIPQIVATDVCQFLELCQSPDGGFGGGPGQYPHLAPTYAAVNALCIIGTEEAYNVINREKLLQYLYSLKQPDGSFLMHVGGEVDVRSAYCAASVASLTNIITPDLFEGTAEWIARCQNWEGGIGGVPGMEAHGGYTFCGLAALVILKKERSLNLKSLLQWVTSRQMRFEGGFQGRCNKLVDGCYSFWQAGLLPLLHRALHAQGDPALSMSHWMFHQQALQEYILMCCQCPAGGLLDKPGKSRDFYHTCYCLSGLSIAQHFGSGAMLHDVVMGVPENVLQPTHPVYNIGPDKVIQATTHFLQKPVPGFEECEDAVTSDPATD

| % inhibition at 1 × 10^-5 M [%] | SMILES |
| --- | --- |
| 69 | CSCC[C@H](NC(=O)c1ccc(CNc2cc(C)on2)cc1-c1ccccc1)C(=O)O [Example 372] |
| 76 | CSCC[C@H](NC(=O)c1ccc(CNc2cc(C)ns2)cc1-c1ccccc1)C(=O)O [Example 373] |
| 61 | CSCC[C@H](NC(=O)c1ccc(CNc2nccs2)cc1-c1ccccc1)C(=O)O [Example 374] |
| 71 | CSCC[C@H](NC(=O)c1ccc(CNCCCN2CCOCC2)cc1-c1ccccc1)C(=O)O [Example 377] |
| 79 | CSCC[C@H](NC(=O)c1ccc(CNc2cc(C(C)(C)C)[nH]n2)cc1-c1ccccc1)C(=O)O [Example 381] |

More lines, now with the values behind:

| SMILES | % inhibition at 1 × 10^-5 M [%] |
| --- | --- |
| CSCC[C@H](NC(=O)c1ccc(CNc2cc[nH]n2)cc1-c1ccccc1)C(=O)O [Example 370] | 86 |
| CSCC[C@H](NC(=O)c1ccc(CNc2nnc(C)s2)cc1-c1ccccc1)C(=O)O [Example 371] | 66 |

Same assay, conditions: Table 2; 1 × 10^-6 M

| % inhibition at 1 × 10^-6 M [%] | SMILES |
| --- | --- |
| 99 | CCSC[C@H](CC1CCCCC1)NCc1ccc(C(=O)N[C@@H](CCSC)C(=O)O)c(-c2ccccc2C)c1 [Example 403] |
| 95 | CSCC[C@H](NC(=O)c1ccc(CN(Cc2ccccc2)c2ccccc2)cc1-c1ccccc1C)C(=O)O [Example 406] |
| 81 | Cc1ccccc1-c1cc(CCc2ccccc2Oc2ccccc2)ccc1C(=O)N[C@@H](CC[S+](C)[O-])C(=O)O (stereo partly shown) [Example 456] |
| 88 | Cc1ccccc1-c1cc(CCc2cccc(Oc3ccccc3)c2)ccc1C(=O)N[C@@H](CC[S+](C)[O-])C(=O)O (stereo partly shown) [Example 460] |
| 91 | Cc1ccccc1-c1cc(CCc2ccc(Oc3ccccc3)cc2)ccc1C(=O)N[C@@H](CC[S+](C)[O-])C(=O)O (stereo partly shown) [Example 463] |
| 92 | CSCC[C@H](NC(=O)c1ccc(/C=C/c2ccc3ccccc3c2)cc1-c1ccccc1C)C(=O)O [Example 465] |
| 93 | CSCC[C@H](NC(=O)c1ccc(/C=C/c2cccc3ccccc23)cc1-c1ccccc1C)C(=O)O [Example 466] |
| 96 | CSCC[C@H](NC(=O)c1ccc(CCc2ccc3ccccc3c2)cc1-c1ccccc1C)C(=O)O [Example 468] |
| 92 | CSCC[C@H](NC(=O)c1ccc(C=CCc2ccccc2)cc1-c1ccccc1C)C(=O)O [Example 469] |

The remaining lines, values behind:

| SMILES | % inhibition at 1 × 10^-6 M [%] |
| --- | --- |
| CSCC[C@H](NC(=O)c1ccc(CCc2ccccc2-c2ccccc2)cc1-c1ccccc1C)C(=O)[O-].[Li+] [Example 452] | 96 |
| CSCC[C@H](NC(=O)c1ccc(C=Cc2ccccc2Oc2ccccc2)cc1-c1ccccc1C)C(=O)[O-].[Li+] [Example 453] | 90 |
| CSCC[C@H](NC(=O)c1ccc(C=Cc2ccccc2Cc2ccccc2)cc1-c1ccccc1C)C(=O)[O-].[Li+] [Example 457] | 92 |
| CSCC[C@H](NC(=O)c1ccc(CCc2cccc3ccccc23)cc1-c1ccccc1C)C(=O)[O-].[Li+] [Example 467] | 97 |
| CSCC[C@H](NC(=O)c1ccc(CCCc2ccc3ccccc3c2)cc1-c1ccccc1C)C(=O)[O-].[Li+] [Example 470] | 95 |

Same assay, conditions: Table 3; 1 × 10^-7 M

| SMILES | % inhibition at 1 × 10^-7 M [%] |
| --- | --- |
| CSCC[C@H](NC(=O)c1ccc(CCc2ccccc2Oc2ccccc2)cc1-c1ccccc1C)C(=O)[O-].[Li+] [Example 455] | 83 |
| CSCC[C@H](NC(=O)c1ccc(CCc2ccccc2Cc2ccccc2)cc1-c1ccccc1C)C(=O)O [Example 458] | 87 |
| CSCC[C@H](NC(=O)c1ccc(CCc2cccc(Oc3ccccc3)c2)cc1-c1ccccc1C)C(=O)[O-].[Li+] [Example 459] | 92 |
| CSCC[C@H](NC(=O)c1ccc(CCc2ccc(C3CCCCC3)cc2)cc1-c1ccccc1C)C(=O)[O-].[Li+] [Example 461] | 93 |
| CSCC[C@H](NC(=O)c1ccc(CCc2ccc(Oc3ccccc3)cc2)cc1-c1ccccc1C)C(=O)[O-].[Li+] [Example 462] | 91 |

Same assay, conditions: read-out: % inhibition at 1 × 10^-6 M; Table 2; 1 × 10^-6 M

| inhibition at 1 µM [%] | SMILES |
| --- | --- |
| 98 | CSCC[C@H](NC(=O)c1ccc(COCCC23CC4CC(CC(C4)C2)C3)cc1-c1ccccc1C)C(=O)O [Example 404, 4-[2-(1-adamantane)ethoxy]methyl-2(2-methylphenyl)benzoylmethionine lithium salt.] |
| 98 | CSCC[C@H](NC(=O)c1ccc(COCCCC2CCCCC2)cc1-c1ccccc1C)C(=O)O [Example 405, 4-(3-cyclohexylpropoxy)methyl-2-(2-methylphenyl)benzoylmethionine lithium salt.] |
| 96 | CSCC[C@H](NC(=O)c1ccc(COCc2ccc(CN(C)C)o2)cc1-c1ccccc1C)C(=O)O [Example 435, N-[4-(5-N,N-dimethylaminomethylfuran-2-ylmethoxymethyl)-2-(2-methylphenyl)benzoyl]methionine] |

Same assay, conditions: read-out: % inhibition at 1 × 10^-7 M

| SMILES | inhibition at 0.1 µM [%] |
| --- | --- |
| CSCC[C@H](NC(=O)c1ccc(COCc2ccc(Br)o2)cc1-c1ccccc1C)C(=O)O [Example 434, N-[4-(5-Bromofuran-2-ylmethoxymethyl)-2-(2-methylphenyl)benzoyl]methionine lithium salt] | 93 |
| CSCC[C@H](NC(=O)c1ccc(COCc2ccc(-c3cccc(F)c3)o2)cc1-c1ccccc1C)C(=O)O [Example 436, N-[4-(5-(3-fluorophenyl)furan-2-ylmethoxymethyl)-2-(2-methylphenyl)benzoyl]methionine lithium salt] | 89 |
| CSCC[C@H](NC(=O)c1ccc(COCc2ccc(-c3ccccc3F)o2)cc1-c1ccccc1C)C(=O)O [Example 437, N-[4-(5-(2-fluorophenyl)furan-2-ylmethoxymethyl)-2-(2-methylphenyl)benzoyl]methionine lithium salt] | 89 |
| CSCC[C@H](NC(=O)c1ccc(COCc2ccc(-c3ccccc3C(F)(F)F)o2)cc1-c1ccccc1C)C(=O)O [Example 438, N-[4-(5-(2-trifluoromethylphenyl)furan-2-ylmethoxymethyl)-2-(2-methylphenyl)benzoyl]methionine lithium salt] | 90 |
| CSCC[C@H](NC(=O)c1ccc(COCc2ccc(-c3cccc([N+](=O)[O-])c3)o2)cc1-c1ccccc1C)C(=O)O [Example 440, N-[4-(5-(3-nitrophenyl)furan-2-ylmethoxymethyl)-2-(2-methylphenyl)benzoyl]methionine lithium salt] | 92 |
| CSCC[C@H](NC(=O)c1ccc(COCc2ccc(-c3cccc(C(F)(F)F)c3)o2)cc1-c1ccccc1C)C(=O)O [Example 441, N-[4-(5-(3-trifluoromethylphenyl)furan-2-ylmethoxymethyl)-2-(2-methylphenyl)benzoyl]methionine lithium salt] | 91 |
| COc1cccc(-c2ccc(COCc3ccc(C(=O)N[C@@H](CCSC)C(=O)O)c(-c4ccccc4C)c3)o2)c1 [Example 442, N-[4-(5-(3-methoxyphenyl)furan-2-ylmethoxymethyl)-2-(2-methylphenyl)benzoyl]methionine lithium salt] | 88 |
| CSCC[C@H](NC(=O)c1ccc(COCc2ccc(-c3ccc(C(F)(F)F)cc3)o2)cc1-c1ccccc1C)C(=O)O [Example 445, N-[4-(5-(4-trifluoromethylphenyl)furan-2-ylmethoxymethyl)-2-(2-methylphenyl)benzoyl]methionine lithium salt] | 94 |
| COc1ccc(-c2ccc(COCc3ccc(C(=O)N[C@@H](CCSC)C(=O)O)c(-c4ccccc4C)c3)o2)cc1 [Example 446, N-[4-(5-(4-methoxyphenyl)furan-2-ylmethoxymethyl)-2-(2-methylphenyl)benzoyl]methionine lithium salt] | 91 |
| CSCC[C@H](NC(=O)c1ccc(COCc2ccc(-c3ccc(SC)cc3)o2)cc1-c1ccccc1C)C(=O)O [Example 447, N-[4-(5-(4-methylthiophenyl)furan-2-ylmethoxymethyl)-2-(2-methylphenyl)benzoyl]methionine lithium salt] | 91 |
| CSCC[C@H](NC(=O)c1ccc(COCc2ccc(-c3ccc(C=O)cc3)o2)cc1-c1ccccc1C)C(=O)O [Example 448, N-[4-(5-(4-formylphenyl)furan-2-ylmethoxymethyl)-2-(2-methylphenyl)benzoyl]methionine lithium salt] | 92 |
| CSCC[C@H](NC(=O)c1ccc(COCc2ccc(-c3ccc(C(C)=O)cc3)o2)cc1-c1ccccc1C)C(=O)O [Example 449, N-[4-(5-(4-acetylphenyl)furan-2-ylmethoxymethyl)-2-(2-methylphenyl)benzoyl]methionine lithium salt] | 91 |

Same assay, conditions: read-out: % inhibition at 1 × 10^-7 M; Table 3; 1 × 10^-7 M

| inhibition at 0.1 µM [%] | SMILES |
| --- | --- |
| 97 | CSCC[C@H](NC(=O)c1ccc(COCc2ccc(-c3ccc(Cl)cc3)o2)cc1-c1ccccc1C)C(=O)O [Example 443, N-[4-(5-(4-chlorophenyl)furan-2-ylmethoxmethyl)-2-(2-methylphenyl)benzoyl]methionine lithium salt] |
| 96 | CSCC[C@H](NC(=O)c1ccc(COCc2ccc(-c3ccc(F)c(Cl)c3)o2)cc1-c1ccccc1C)C(=O)O [Example 450, N-[4-(5-(3-chloro-4-fluorophenyl)furan-2-ylmethoxymethyl)-2-(2-methylphenyl)benzoyl]methionine lithium salt] |
